Patent US8461125B2, “Compositions and methods to treat asthma” (The Children's Hospital of Philadelphia, priority 2008, dated 2013)

Key:
CD23a mRNA = test: siRNA-mediated knockdown of CD23a mRNA expression in cultured human ASM cells (RT-PCR); type: cell-based; settings: 100 nM each siRNA duplex; for CD23a mRNA expression (constitutive): FIG. 2, human ASM cells, control conditions, Oligofectamine-mediated transfection; for CD23a mRNA expression in IL-13-treated ASM cells / CD23a mRNA expression in vehicle-exposed ASM cells: FIG. 3, Oligofectamine transfection; for CD23a mRNA expression in IL-13-treated ASM cells: human ASM cells exposed 12 hr to IL-13 (50 ng/ml); for CD23a mRNA expression in vehicle-exposed ASM cells: human ASM cells exposed 12 hr to vehicle
Excerpt: The following materials and methods are provided to facilitate practice of the present invention: • Materials: All chemicals were purchased from Sigma-Aldrich unless otherwise indicated. The human ASM cells were obtained from BioWhittaker, Inc. • Animals: Adult New Zealand White rabbits were used in this study, which was approved by the Biosafety and Animal Research Committee of the Joseph Stokes Research Institute at Children's Hospital of Philadelphia. The animals had no signs of respiratory disease for several weeks before the study, and their care and use were in accordance with the “Guide for the Care and Use of Laboratory Animals” prepared by the Institute of Laboratory Animal Resources, National Research Council. • Immunization protocol: Rabbits were actively immunized by an intra-peritoneal injection of 1 ml of an emulsion containing ovalbumin (OVA; 2.5 mg in PBS) mixed in equal part with adjuvant, administered each week for 3 weeks and, thereafter, every alternate week for a one month period. Non-immunized rabbits receiving injections with PBS alone served as controls. Thereafter, the rabbits were challenged by airway administration of a 3% solution of OVA. […] Approximately 40 ml of blood was then drawn via an ear vein from each of the immunized and control rabbits for preparation of asthmatic and non-asthmatic serum samples to be used for subsequent passive sensitization of ASM tissue segments isolated from naïve rabbits, as described below. • siRNA-mediated knockdown of CD23 in cultured ASM cells: Human ASM cells were grown in SmBm media supplemented with 10% FBS (BioWhittaker) and maintained throughout in a humidified incubator containing 5% CO2 in air at 37° C. The experimental protocols involved seeding the cells into 6-well plates and, at ˜40% confluency, the medium was replaced with the reduced serum-containing medium, Opti-MEM (Invitrogen). Separate preparations of cells were then transfected twice during a 24-hr interval with each of four different siRNA duplexes targeted against human CD23, using Oligofectamine (Invitrogen) as the transfection agent. The siRNA preparations were purchased from Applied Biosystems and comprised the following nucleotide sequences:
Additionally, cell preparations were also transfected with either a pool of these CD23-directed siRNA duplexes, a non-targeted negative control (scrambled) siRNA duplex, or a negative control duplex labeled with the […], Cy™3, to visualize siRNA transfection efficiency. The siRNAs were applied to each well at a final concentration of 100 nM for each siRNA duplex. After 3 days, the cells were exposed for 12 hr to either vehicle alone or the pro-asthmatic cytokine, IL-13 (50 ng/ml), which is known to upregulate CD23 expression in human monocytes. The cells were subsequently examined for induced changes in mRNA expression of CD23a. • Detection of CD23 mRNA transcripts: Total RNA was extracted from the cultured ASM cells using the TRIzol method (Invitrogen), and cDNAs were isolated by RT-PCR using the SuperScript First Strand Synthesis System kit from Invitrogen, with the following oligonucleotide primer sets (Integrated DNA Technologies): for CD23a, (SEQ ID NO: 11) 5′-[…]-3′ (forward) and (SEQ ID NO: 12) 5′-[…]-3′ (reverse); and for β-actin, (SEQ ID NO: 13) 5′-[…]-3′ (forward) and (SEQ ID NO: 14) 5′-[…]-3′ (reverse). The reaction volume was 20 μl and cycling conditions used were 35 cycles of 30 sec denaturation at 95° C., followed by 30 sec annealing at 60° C. and elongation at 72° C. for 30 sec. Ex-Tag (Takara Biotechnology) was used as DNA polymerase. • Pharmacodynamic studies of constrictor and relaxation responsiveness in rabbit ASM tissues: Following initial sedation and subsequent general anesthesia with intramuscular injections of xylazine (10 mg/kg) and ketamine (50 mg/kg), respectively, rabbits were sacrificed with an intravenously administered overdose of sodium pentobarbital (100 mg/kg). […]

rabbit ASM tissues = test: Constrictor and relaxation responsiveness in isolated rabbit ASM tissues (organ bath, isometric tension); settings: rabbit ASM tissues exposed 24 hr to IgE immune complexes, pretreatment 10 μM
Excerpt: The following materials and methods are provided to facilitate practice of the present invention: • Materials: All chemicals were purchased from Sigma-Aldrich unless otherwise indicated. The human ASM cells were obtained from BioWhittaker, Inc. • Animals: Adult New Zealand White rabbits were used in this study, which was approved by the Biosafety and Animal Research Committee of the Joseph Stokes Research Institute at Children's Hospital of Philadelphia. The animals had no signs of respiratory disease for several weeks before the study, and their care and use were in accordance with the “Guide for the Care and Use of Laboratory Animals” prepared by the Institute of Laboratory Animal Resources, National Research Council. • Immunization protocol: Rabbits were actively immunized by an intra-peritoneal injection of 1 ml of an emulsion containing ovalbumin (OVA; 2.5 mg in PBS) mixed in equal part with adjuvant, administered each week for 3 weeks and, thereafter, every alternate week for a one month period. Non-immunized rabbits receiving injections with PBS alone served as controls. Thereafter, the rabbits were challenged by airway administration of a 3% solution of OVA. […]

cAMP PDE4 activity = test: cAMP PDE activity in isolated rabbit ASM tissues after pro-asthmatic sensitization; settings: FIG. 7B; rabbit ASM tissues sensitized 24 hr with IgE immune complexes

Compound	CD23a mRNA expression (constitutive) (CD23a mRNA)	CD23a mRNA expression (constitutive) (CD23a mRNA; listed as 106645)	CD23a mRNA expression in IL-13-treated ASM cells (CD23a mRNA)	CD23a mRNA expression in vehicle-exposed ASM cells (CD23a mRNA)	CD23a mRNA expression (constitutive) (CD23a mRNA; listed as 111060)	Induced pro-asthmatic change in constrictor responsiveness to ACh (rabbit ASM tissues; FIG. 5A)	Induced pro-asthmatic change in relaxation responsiveness to isoproterenol (rabbit ASM tissues; FIG. 5B)	Induced upregulation of cAMP PDE4 activity (cAMP PDE4 activity)
#106645: siRNA duplex against human CD23 (Applied Biosystems): sense 5′-GGUGACAAAGCUAAGGAUGtt-3′, antisense 5′-CAUCCUUAGCUUUGUCACCtc-3′ (sense GGUGACAAAGCUAAGGAUGTT; antisense CAUCCUUAGCUUUGUCACCTC; chemistry not given here)	distinctly inhibited	marked inhibition	markedly inhibited	markedly inhibited	–	–	–	–
#111062: siRNA duplex against human CD23 (Applied Biosystems): sense 5′-CGAAGCUUCAGAUUUGCUGtt-3′, antisense 5′-CAGCAAAUCUGAAGCUUCGtt-3′ (sense CGAAGCUUCAGAUUUGCUGTT; antisense CAGCAAAUCUGAAGCUUCGTT; chemistry not given here)	no effect	–	no effect	no effect	–	–	–	–
#111060: siRNA duplex against human CD23 (Applied Biosystems): sense 5′-GGAAUUGAACGAGAGGAACtt-3′, antisense 5′-GUUCCUCUCGUUCAAUUCCtg-3′ (sense GGAAUUGAACGAGAGGAACTT; antisense GUUCCUCUCGUUCAAUUCCTG; chemistry not given here)	distinctly inhibited	–	markedly inhibited	markedly inhibited	marked inhibition	–	–	–
#106644: siRNA duplex against human CD23 (Applied Biosystems): sense 5′-GGAGGUGACAAAGCUAAGGtt-3′, antisense 5′-CCUUAGCUUUGUCACCUCCtc-3′ (sense GGAGGUGACAAAGCUAAGGTT; antisense CCUUAGCUUUGUCACCUCCTC; chemistry not given here)	no effect	–	no effect	no effect	–	–	–	–
COc1ccc(C2CNC(=O)C2)cc1OC1CCCC1 (centres unmarked) [rolipram]	–	–	–	–	–	prevented	prevented	inhibitory effect
